According to patent US7244713B2, “Nucleoside compounds for treating viral infections” (Genelabs Technologies, Inc., priority 2003, dated 2007):

Legend:
[1] = system: HCV replicon in ET (Huh-lucubineo-ET) cell line; experiment: Replicon assay (luciferase, ET cells); assay type: cell-based, hepatitis C virus
Protocol: A cell line, ET (Huh-lucubineo-ET) is used for screening of compounds of the present invention for HCV RNA dependent RNA polymerase. The ET cell line is stably transfected with RNA transcripts harboring a I389luc-ubi-neo/NS3-3′/ET; replicon with firefly luciferase-ubiquitin-neomycin phosphotransferase fusion protein and EMCV-IRES driven NS3-5B polyprotein containing the cell culture adaptive mutations (E1202G; T1280I; K1846T) (Krieger at al, 2001 and unpublished). The ET cells are grown in DMEM, supplemented with 10% fetal calf serum, 2 mM Glutamine, Penicillin (100 IU/mL)/Streptomycin (100 μg/mL), 1× nonessential amino acids, and 250 μg/mL G418 (“Geneticin”). They are all available through Life Technologies (Bethesda, Md.). The cells are plated at 0.5-1.0×10^4 cells/well in the 96 well plates and incubated for 24 hrs before adding nucleoside analogs. Then the compounds were added to the cells to achieve a final concentration of 50 or 100 μM, or whatever concentration is desired. For these determinations, 6 dilutions of each compound are used. Compounds are typically diluted 3 fold to span a concentration range of 250 fold. Luciferase activity will be measured 48-72 hours later by adding a lysis buffer and the substrate (Catalog number Glo-lysis buffer E2661 and Bright-Glo leuciferase system E2620 Promega, Madison, Wis.). Cells should not be too confluent during the assay. Percent inhibition of replication will be plotted relative to no compound control. Under the same condition, cytotoxicity of the compounds will be determined using cell proliferation reagent, WST-1 (Roche, Germany). IC50 and TC50 values are calculated by fitting % inhibition at each concentration to the following equation, where b is Hill's coefficient: % inhibition=100%/[(IC50/[I])^b+1]

HCV-NS5b = target: T1, HCV-NS5b (Hepatitis C virus genotype 1b, UniProt Q9WMX2); experiment: HCV-NS5b enzyme assay; assay type: biochemical
T1 construct: The cloned fragment is missing the C terminus 21 amino acid residues; (His)6 (C); made in house; host or cells: XL-1 cells (E. coli, IPTG-inducible plasmid)
Text: The coding sequence of NS5b protein is cloned by PCR from pFKI389luc/NS3-3′/ET as described by Lohmann, V., et al. (1999) Science 285, 110-113 using the following primers: […]
The cloned fragment is missing the C terminus 21 amino acid residues. The cloned fragment is inserted into an IPTG-inducible expression plasmid that provides an epitope tag (His)6 at the carboxy terminus of the protein.
The recombinant enzyme is expressed in XL-1 cells and after induction of expression, the protein is purified using affinity chromatography on a nickel-NTA column. Storage condition is 10 mM Tris-HCl pH 7.5, 50 mM NaCl, 0.1 mM EDTA, 1 mM DTT, 20% glycerol at −20° C.
The polymerase activity is assayed by measuring incorporation of radiolabeled UTP into a RNA product using a biotinylated, heteropolymeric template, which includes a portion of the HCV genome. Typically, the assay mixture (50 μL) contains 10 mM Tris-HCl (pH 7.5), 5 mM MgCl2, 0.2 mM EDTA, 10 mM KCl, 1 unit/μL RNAsin, 1 mM DTT, 10 μM each of NTP, including [^3H]-UTP, and 10 ng/μL heteropolymeric template. Test compounds are initially dissolved in 100% DMSO and further diluted in aqueous buffer containing 5% DMSO. Typically, compounds are tested at concentrations between 1 nM and 100 μM. Reactions are started with addition of enzyme and allowed to continue at 37° C. for 2 hours. Reactions are quenched with 8 μL of 100 mM EDTA and reaction mixtures (30 μL) are transferred to streptavidin-coated scintillation proximity microtiter plates (FlashPlates) and incubated at 4° C. overnight. Incorporation of radioactivity is determined by scintillation counting.

[2] = currently recommended doses; cited from earlier work
HCV = settings: treatment of HCV, long term efficacy; cited from earlier work

Compound | inhibition at 50 µM ([1]; Hepatitis C virus, 50 μM) [%] | inhibition at 100 µM ([1]; Hepatitis C virus, 100 μM) [%] | also measured
C[C@@]1(O)C(O)C(CO)OC1n1cc(C#CC(N)=O)c2c(N)ncnc21 (stereo in doubt) [Cmpd 105, 7-(2′-C-methyl-β-D-ribofuranosyl)-4-amino-5-(2-carboxamidoethyn-1-yl)-pyrrolo[2,3-d]pyrimidine] | 69.6 | 89.1 | –
CCOC(C#Cc1cn(C2OC(CO)C(O)[C@@]2(C)O)c2ncnc(N)c12)OCC (stereo in doubt) [Cmpd 106, 7-(2′-C-methyl-β-D-ribofuranosyl)-4-amino-5-[(3,3-diethoxy)proparg-1-yl]-pyrrolo[2,3-d]pyrimidine] | 95.5 | 95.6 | –
C[C@@]1(O)C(O)C(CO)OC1n1cc(C=NO)c2c(N)ncnc21 (stereo in doubt) [Cmpd 173, 7-(2′-C-methyl-β-D-ribofuranosyl)-4-amino-5-(carbaldehyde oxime)-pyrrolo[2,3-d]pyrimidine] | 76.7 | 86.9 | –
C[C@@]1(O)C(O)C(CO)OC1n1cc(B(O)O)c2c(N)ncnc21 (stereo in doubt) [Cmpd 181, 7-(2′-C-methyl-β-D-ribofuranosyl)-4-amino-5-(boronic acid)-pyrrolo[2,3-d]pyrimidine] | 98.2 | 98.1 | –
C[C@@]1(O)[C@H](O)[C@@H](CO)O[C@H]1n1cc(C#C[Si](C)(C)C)c2c(N)ncnc21 [Cmpd 101, 7-(2′-C-methyl-β-D-ribofuranosyl)-4-amino-5-(2′-trimethylsilylethyn-1-yl)-pyrrolo[2,3-d]pyrimidine] | – | – | inhibition at 50 µM ([1]; Hepatitis C virus): 98.1%; inhibition at 100 µM ([1]; Hepatitis C virus): 98.5%
C[C@@]1(O)[C@H](O)[C@@H](CO)O[C@H]1n1cc(C#CC(=O)O)c2c(N)ncnc21 [Cmpd 133, 7-(2′-C-methyl-β-D-ribofuranosyl)-4-amino-5-(2-carboxyethyn-1-yl)-pyrrolo[2,3-d]pyrimidine] | 92.3 | 96.7 | –
CCOC(=O)C#Cc1cn([C@@H]2O[C@H](CO)[C@@H](O)[C@@]2(C)O)c2ncnc(N)c12 [Cmpd 137, 7-(2′-C-methyl-β-D-ribofuranosyl)-4-amino-5-[(ethyl 2-carboxyl)ethyn-1-yl]-pyrrolo[2,3-d]pyrimidine] | 98.1 | 97.6 | –
C[C@@]1(O)[C@H](O)[C@@H](CO)O[C@H]1n1cc(C#Cc2ccccc2)c2c(N)ncnc21 [Cmpd 145, 7-(2′-C-methyl-β-D-ribofuranosyl)-4-amino-5-(2-phenylethyn-1-yl)-pyrrolo[2,3-d]pyrimidine] | 90.7 | 91.8 | –
C[C@@]1(O)[C@H](O)[C@@H](COP(=O)(O)OP(=O)(O)OP(=O)(O)O)O[C@H]1n1cc(C#Cc2ccccc2)c2c(N)ncnc21 [Cmpd 154, 7-(2′-C-methyl-5′-triphospho-β-D-ribofuranosyl)-4-amino-5-(2-phenylethyn-1-yl)-pyrrolo[2,3-d]pyrimidine] | – | – | inhibition at 16.7 µM (HCV-NS5b; 16.7 μM, read-out: Enzyme, % inhibition @Con 2): 10.9%; inhibition at 50 µM (HCV-NS5b; 50 μM, read-out: Enzyme, % inhibition @Con 1): 19.2%
C=Cc1cn([C@@H]2O[C@H](CO)[C@@H](O)[C@@]2(C)O)c2ncnc(N)c12 [Cmpd 157, 7-(2′-C-methyl-β-D-ribofuranosyl)-4-amino-5-(ethen-1-yl)-pyrrolo[2,3-d]pyrimidine] | 89 | 95 | –
CO/C=C\c1cn([C@@H]2O[C@H](CO)[C@@H](O)[C@@]2(C)O)c2ncnc(N)c12 [Cmpd 158, 7-(2′-C-methyl-β-D-ribofuranosyl)-4-amino-5-(2-cis-methoxy-ethen-1-yl)-pyrrolo[2,3-d]pyrimidine] | – | 78.6 | Replicon, % inhibition @100 μM ([1]; 100 μM): 62.4%
C[C@@]1(O)[C@H](O)[C@@H](CO)O[C@H]1n1cc(C=O)c2c(N)ncnc21 [Cmpd 165, 7-(2′-C-methyl-β-D-ribofuranosyl)-4-amino-5-(formyl)-pyrrolo[2,3-d]pyrimidine] | – | – | inhibition at 50 µM ([1]; Hepatitis C virus): 96.8%; inhibition at 100 µM ([1]; Hepatitis C virus): 95.9%
C[C@@]1(O)[C@H](O)[C@@H](COP(=O)(O)O)O[C@H]1n1cc(C=O)c2c(N)ncnc21 [Cmpd 166, 7-(2′-C-methyl-5′-phospho-β-D-ribofuranosyl)-4-amino-5-(formyl)-pyrrolo[2,3-d]pyrimidine] | 97 | – | inhibition at 16.7 µM ([1]; Hepatitis C virus, 16.7 μM, second test): 96.6%
C[C@@]1(O)[C@H](O)[C@@H](COP(=O)(O)OP(=O)(O)OP(=O)(O)O)O[C@H]1n1cc(C=O)c2c(N)ncnc21 [Cmpd 168, 7-(2′-C-methyl-5′-triphospho-β-D-ribofuranosyl)-4-amino-5-(formyl)-pyrrolo[2,3-d]pyrimidine] | – | – | inhibition at 7.7 µM (HCV-NS5b; 7.7 μM, read-out: Enzyme, % inhibition @Con 2): 92%; inhibition at 23.1 µM (HCV-NS5b; 23.1 μM, read-out: Enzyme, % inhibition @Con 1): 96%
C[C@@]1(O)C(O)C(CO)OC1n1cc(/C=N/N)c2c(N)ncnc21 (stereo partly drawn) [Cmpd 169, 7-(2′-C-methyl-β-D-ribofuranosyl)-4-amino-5-(hydrazono)-pyrrolo[2,3-d]pyrimidine] | 80.7 | 89.6 | –
NC(=O)c1ncn([C@@H]2O[C@H](CO)[C@@H](O)[C@H]2O)n1 [Ribavirin, 1-β-D-ribofuranosyl-1H-1,2,-4-triazole-3-carboxamide] | – | – | patients with significant hemolysis [2]: 10-20%
interferon | – | – | response rate (HCV): about 25%
